The results in this text go back to US20090105155A1, “TRUNCATED LHRH FORMULATIONS” (priority 2004, published 2009).

Where no end group is shown, it is not given here.

Common to all, as to format: in vivo
The subject of test [1] is LHRH. Description: Anti-LHRH antibody titres induced by different priming and boosting regimes (Example 2). The conditions noted are these: Beagles/foxhound dogs, 5 nmoles total peptides (pool p25, p35, p62) with Iscomatrix; for titres of antibodies following the second dose of vaccine: doses week 0, 4, 14, LHRH (2-10) compared with LHRH (6-10). The text has this: (§1) Beagles/foxhound dogs were divided into three groups. One group (12 dogs) received three doses of 5 nmoles of total peptides consisting of a pool of peptides p25, p35 and p62 coupled to LHRH (6-10).
(§2) A second group (6 dogs) received three doses of 5 nmoles of total peptides consisting of a pool of peptides p25, p35 and p62 coupled to LHRH (2-10).
(§3) A third group (6 dogs) received three doses of 5 nmoles of total peptides consisting of a pool of peptides p25, p35 and p62 coupled to LHRH (2-10) as the first dose. For the second and third dose the vaccine was the same pool of peptides but coupled to LHRH (6-10).
(§4) The dogs received the three doses of vaccine in week 0, 4 and 14 respectively.
(§5) 1 to 1.5 mg of each of the peptides were weighed out and dissolved in 100 ul of 4 M urea separately. The amounts of the solutions corresponding to 1.7 nmoles of each peptide were mixed and diluted with isotonic saline to the designated dose volume for injection (1 ml per dose). For each dose 150 ug of Iscomatrix•® (CSL, Melbourne, Australia) was also added as adjuvant. The vaccine was given to dogs in the scruff of the neck.

The test system of test [2] is LHRH. Description: Testosterone and progesterone levels in vaccinated dogs (Example 2). The conditions noted are these: Beagles/foxhound dogs; two doses; proportion of animals, compared with the other regimes.
From the text: as §1, §2, §3, §4, §5

Test [3] relates to LHRH. Description: Testosterone and progesterone levels following vaccination with LHRH (6-10) or LHRH (4-10) (Example 3). The conditions noted are these: Beagles/foxhound dogs, 35 nmoles total peptides, 7-peptide pool with Iscomatrix; for hormone breakthrough: testosterone and progesterone. As to the method: (§6) Beagles/foxhound dogs were divided into two groups. One group (15 dogs) received three doses of 35 nmoles of total peptides consisting of a pool of peptides p4, p10, p24, p25, p27, p35 and p62 coupled to LHRH (6-10).
(§7) A second group (15 dogs) received three doses of 35 nmoles of total peptides consisting of a pool of peptides p4, p10, p24, p25, p27, p35 and p62 coupled to LHRH (4-10).
as §4
(§8) 1 to 1.5 mg of each of the peptides were weighed out and dissolved in 100 ul of 4 M urea separately. The amounts of the solutions corresponding to 5 nmoles of each peptide were mixed and diluted with isotonic saline to the designated dose volume for injection (1 ml per dose). For each dose 150 ug of Iscomatrix•® (CSL, Melbourne, Australia) was also added as adjuvant. The vaccine was given to dogs in the scruff of the neck.

The test system of test [4] is LHRH. Description: Anti-LHRH antibody titres induced by LHRH (6-10) and LHRH (4-10) (Example 3). The conditions noted are these: Beagles/foxhound dogs; 35 nmoles total peptides (pool p4, p10, p24, p25, p27, p35, p62) with Iscomatrix; week 0, 4, 14; compared with LHRH (6-10). Here is the method: as §6, §7, §4, §8

Take “LHRH (2-10): Vaccine: pool of peptides p25, p35 and p62 coupled to LHRH (2-10), with Iscomatrix adjuvant (HWSYGLRPG; ends and bridges not checked; also: coupled to T helper peptide pool; UniProt P01148 25-33, looked up, fragment)”: the “titres of antibodies following the second dose of vaccine” value in test [1] is “little apparent difference”.
Take “LHRH (2-10)-LHRH (6-10): Regime: p25, p35, p62 pool coupled to LHRH (2-10) as first dose, same pool coupled to LHRH (6-10) for second and third dose (HWSYGLRPG; ends and bridges not checked; also: coupled to T helper peptide pool; UniProt P01148 25-33, looked up, fragment)”: in test [1] (comparison of the three regimes), the “titre in the primary antibody response” value was “lowest titres”.
“LHRH (6-10): Vaccine: T helper epitope peptides coupled to LHRH (6-10), Iscomatrix; pool p25, p35, p62 (Example 2) or seven-peptide pool (Example 3) (GLRPG; ends and bridges not checked; also: coupled to T helper peptide pool; UniProt P01148 29-33, looked up, fragment)”: the “titres of antibodies following the second dose of vaccine” value in test [1] was “little apparent difference”. Besides, in test [2], the levels of progesterone result was “lower levels” and the levels of testosterone result is on record as “lower levels”. Also, the hormone breakthrough result in test [3] was “hormone breakthrough”.
Regarding “LHRH (4-10): Vaccine: pool of peptides p4, p10, p24, p25, p27, p35 and p62 coupled to LHRH (4-10) (SYGLRPG), with Iscomatrix adjuvant”, the titres of antibodies result in test [4] is “Higher titres”. In test [3] (compared with LHRH (6-10)), the “effect on progesterone levels” value is listed as “more striking effect” and the “effect on testosterone levels” value is “more striking effect”. The hormone breakthrough result in test [3] is reported as “no animals show hormone breakthrough”.
